# According to patent publication US20230357179A1, “RAF KINASE INHIBITORS AND METHODS OF USE THEREOF” (Deciphera Pharmaceuticals, LLC, priority 2021, published 2023):
# Assays:
# Type in all cases: cell-based
# WM3629 cells = experiment: WM3629 cell proliferation assay (1), resazurin, 96-well; details: inhibition of cell proliferation
# Description: WM3629 Cell Proliferation Assay (1)
# WM3629 cells (#WM3629-01-0001) are obtained from Rockland Immunochemicals Inc (Gilbertsville, PA). Briefly, cells were grown in MCDB 153 medium (Sigma, #M7403, St. Louis, MO) supplemented with 20% Leibovitz's L-15 (ThermoFisher #11415-064, Waltham, MA), 2% heat inactivated fetal bovine serum (ThermoFisher, #A3840001, Waltham, MA), 5 μg/mL Insulin (Bovine Pancreas) (Sigma, #I0516, St. Louis, MO), 1.68 mM Calcium Chloride (Sigma, #C-34006, St. Louis, MO) and 1% Penicillin/Streptomycin/L-Glutamine (ThermoFisher #10378016, Waltham, MA) at 37° C., 5% CO2, and 95% humidity. Cells are expanded until reaching 70-95% confluency at which point they are subcultured or harvested for assay use. A serial dilution of test compound is dispensed into a 96-well black clear bottom plate in triplicate. Four thousand five hundred cells are added per well in 200 μL complete growth medium in the 96-well plate. Plates are incubated for 67-72 hours at 37° C., 5% CO2, and 95% humidity. At the end of the incubation, 40 μL of a 440 μM solution of resazurin (Sigma, #199303, St. Louis, MO) in PBS is added to each well of the plate and plates are incubated for an additional 6-7 hours at 37° C., 5% CO2, and 95% humidity. Plates are read on a Synergy2 or equivalent reader (Biotek, Winooski VT) using an excitation of 540 nm and an emission of 600 nm. Data is analyzed using Prism software (GraphPad, San Diego, CA) to calculate IC50 values.
# Miapaca-2 cells = experiment: MiaPaca-2 combination cell proliferation assay (1) with cobimetinib, 96-well; details: inhibition of cell proliferation, read-out: MiaPaca-2 Combo (1) IC50
# Description: MiaPaca-2 Combination Cell proliferation Assay (1)
# Miapaca-2 cells (catalog #CRL-1420) are obtained from the American Type Culture Collect (ATCC, Manassas, VA). Briefly, cells were grown in DMEM supplemented with 10% characterized fetal bovine serum (Invitrogen, Carlsbad, CA), 2.5% New Zealand sourced horse serum and 1% Penicillin/Streptomycin/L-Glutamine at 37° C., 5% CO2, and 95% humidity. Cells are expanded until reaching 70-95% confluency at which point they are subcultured or harvested for assay use. A serial dilution of test compound was dispensed into multiple 96-well black clear bottom plates in triplicate. A serial dilution of complete growth medium containing cobimetinib was prepared at twice the final concentration and 100 μL was dispensed across the test compound titration in triplicate. Three thousand cells are added per well in 100 μL complete growth medium in each 96-well plate. Plates are incubated for 67-72 hours at 37° C., 5% CO2, and 95% humidity. At the end of the incubation, 40 μL of a 440 μM solution of resazurin (Sigma, St. Louis, MO) in PBS is added to each well of the plate and plates are incubated for an additional 5-7 hours at 37° C., 5% CO2, and 95% humidity. Plates are read on a Synergy2 or equivalent reader (Biotek, Winooski VT) using an excitation of 540 nm and an emission of 600 nm. Drug synergy was assessed via BLISS analysis in the Combenefit software (Cancer Research UK Cambridge Institute, Cambridge, UK). Data is analyzed using Prism software (GraphPad, San Diego, CA) to calculate IC50 values. Shifts in test compound IC50 values are reported from top-constrained combination therapy curves.
# A375 cells = experiment: A375 cell proliferation assay (2), resazurin, 384-well; details: Homo sapiens, A-375, inhibition of cell proliferation, 67-72 h
# Description: A375 Cell Proliferation Assay (2)
# A375 cells (catalog (#CRL-1619) are obtained from the American Type Culture Collect (ATTC, Manassas, VA). Briefly, cells were grown in DMEM High Glucose supplemented with 10% characterized fetal bovine serum (Invitrogen, Carlsbad, CA) and 1% Penicillin/Streptomycin/L-Glutamine at 37° C., 5% CO2, and 95% humidity. Cells are expanded until reaching 70-95% confluency at which point they are sub-cultured or harvested for assay use. Using the Beckman Coulter Echo 650, a serial dilution of test compound is dispensed into a 384-well black clear bottom plate in triplicate. Six hundred twenty-five cells are added per well in 50 μL complete growth medium in the 384-well plate. Plates are incubated for 67-72 h at 37° C., 5% CO2, and 95% humidity. At the end of the incubation, 10 μL of a 440 μM solution of resazurin (Sigma, St. Louis, MO) in PBS is added to each well of the plate and plates are incubated for an additional 3-6 h at 37° C., 5% CO2, and 95% humidity. Plates are read on a Synergy2 or equivalent reader (Biotek, Winooski VT) using an excitation of 540 nm and an emission of 600 nm. Data is analyzed using Prism software (GraphPad, San Diego, CA) to calculate IC50 values.
# WM3928 cells = experiment: WM3928 cell proliferation assay (2), resazurin, 384-well; details: inhibition of cell proliferation, 67-72 hours
# Description: WM3928 Cell Proliferation Assay (2)
# WM3928 cells (#WM3928-01-0001) are obtained from Rockland Immunochemicals Inc (Gilbertsville, PA). Briefly, cells were grown in MCDB 153 medium (Sigma, #M7403, St. Louis, MO) supplemented with 20% Leibovitz's L-15 (ThermoFisher #11415-064, Waltham, MA), 2% heat inactivated fetal bovine serum (ThermoFisher, #A3840001, Waltham, MA), 5 μg/mL Insulin (Bovine Pancreas) (Sigma, #I0516, St. Louis, MO), 1.68 mM Calcium Chloride (Sigma, #C-34006, St. Louis, MO) and 1% Penicillin/Streptomycin/L-Glutamine (ThermoFisher #10378016, Waltham, MA) at 37° C., 5% CO2, and 95% humidity. Cells are expanded until reaching 70-95% confluency at which point they are sub-cultured or harvested for assay use. Using the Beckman Coulter Echo 650, a serial dilution of test compound is dispensed into a 384-well black clear bottom plate in triplicate. Seven hundred fifty cells are added per well in 50 μL complete growth medium in the 384-well plate. Plates are incubated for 67-72 hours at 37° C., 5% CO2, and 95% humidity. At the end of the incubation, 10 μL of a 440 μM solution of resazurin (Sigma, #199303, St. Louis, MO) in PBS is added to each well of the plate and plates are incubated for an additional 3-6 hours at 37° C., 5% CO2, and 95% humidity. Plates are read on a Synergy2 or equivalent reader (Biotek, Winooski VT) using an excitation of 540 nm and an emission of 600 nm. Data is analyzed using Prism software (GraphPad, San Diego, CA) to calculate IC50 values.
IC50 (Miapaca-2 cells) [µM],Structure (SMILES),IC50 (WM3629 cells) [µM],other results
0.1 to 0.5,Cc1ccc(NC(=O)N2CC[C@H](C(F)(F)F)C2)cc1-c1cccc(-c2cc(NC(=O)C3CC3)ncn2)c1 [Example 200],≤ 0.1,
≤ 0.1,CC(=O)Nc1cc(-c2cc(-c3cc(NC(=O)NC4CCC(F)(F)CC4)c(F)cc3C)cc(OCCO)n2)ccn1 [Example 63],,
0.1 to 0.5,Cc1cc(F)c(NC(=O)NCCC2(C)CC2)cc1-c1cc(OCCO)nc(-c2ccnc(NC(=O)C3CC3)c2)c1 [Example 76],,
0.1 to 0.5,Cc1ccc(NC(=O)N2CC[C@@H](C(F)(F)F)C2)cc1-c1cccc(-c2cc(NC(=O)C3CC3)ncn2)c1 [Example 201],≤ 0.1,

# Further lines, the compound ahead of its results:
Structure (SMILES),IC50 (Miapaca-2 cells) [µM],IC50 (WM3629 cells) [µM],other results
Cc1ccc(NC(=O)N2CC[C@H](C(C)C)C2)cc1-c1cncc(-c2cc(NC(=O)C3CC3)ncn2)c1 [Example 221],,≤ 0.1,
Cc1cc(F)c(NC(=O)N2CC[C@H](C(F)(F)F)C2)cc1-c1cncc(-c2cc(NC(=O)C3CC3)ncn2)c1 [Example 216],,,IC50 (A375 cells): 0.1 to 0.5 µM; IC50 (WM3928 cells): ≤ 0.1 µM
Cc1ccc(NC(=O)N2CC[C@H](C(F)(F)F)C2)cc1-c1cncc(-c2cc(NC(=O)C3CC3)ncn2)c1 [Example 195],,,IC50 (A375 cells): 0.1 to 0.5 µM; IC50 (WM3928 cells): ≤ 0.1 µM
CC(=O)Nc1cc(-c2cc(-c3cc(NC(=O)NCCC4(C)CC4)c(F)cc3C)cc(OCCO)n2)ccn1 [Example 33],≤ 0.1,,
Cc1cc(F)c(NC(=O)NCCC2(C(F)(F)F)CC2)cc1-c1cc(OCCO)nc(C2CCOCC2)c1 [Example 24],≤ 0.1,,
CC(=O)Nc1cc(-c2cc(-c3cc(NC(=O)NCCC4(C)CC4)c(F)cc3C)cc(C)n2)ccn1 [Example 55],≤ 0.1,,
Cc1ccc(NC(=O)N2CC[C@@H](C(C)C)C2)cc1-c1cncc(-c2cc(NC(=O)C3CC3)ncn2)c1 [Example 217],,≤ 0.1,
